Data on 1 compound can be found in patent US11412737B2, “Mixtures of beflubutamid or optically enriched forms thereof with a second herbicide” (FMC Corporation, priority 2016, dated 2022).

Holding throughout (assay): pre-emergence test, weed control
For assay [1], the system named is Large crabgrass (DIGSA). The class given is in vivo. The conditions noted are these: pre-emergent, 28 DAT, rate g ai/ha by row: r4 94, r5 50, r6 100, r7 52.5, r8 70, r9 94+52.5, r10 94+70, r11 50+52.5, r12 50+70, r13 100+52.5, r14 100+70. As to the method:
(§1) Test compositions containing the test compounds were diluted with water to provide the appropriate test rate concentrations.
(§2) For pre-emergence testing, four disposable fiber flats (6 inch by 10 inch) for each rate of application of each herbicide solution were filled with top soil, to which seeds of each species were planted in furrows made by a template pressed on the top of the soil. The furrows were covered with soil after planting the seed and were watered well before application of the test compounds.
(§3) Fiber flats designated for treatment were placed in a spray chamber having a static platform and a movable sprayer and the height of the spray nozzle was 10.5 inches above the soil level. Once the sprayer was calibrated using water for spray volume of 30 gallons per acre, flats were sprayed with sprayer at a speed to receive a coverage equivalent of 30 gallons per acre. The application rates are those shown in the Tables below for the individual herbicidal solutions and the herbicide compositions of this invention. The pre-emergence flats were immediately placed in the greenhouse and watered lightly after treatment. Thereafter they were regularly watered and fertilized for the duration of the test.
(§4) The control of weeds was evaluated in each experimental test at 21 for wheat and 28 days after treatment (DAT) for all species. Data were analyzed using Minitab software at 95% confidence interval. The results, shown as an average of the replications, were compared with results observed in untreated control flats in the same tests. Percent control was determined by a method similar to the 0 to 100 rating system disclosed in “Research Methods in Weed Science,” 2nd ed., B. Truelove, Ed.; Southern Weed Science Society; Auburn University, Auburn, Ala., 1977. The rating system is as follows in Table 1.

Assay [2] has as its system Goosegrass (ELEIN). The format is in vivo. Conditions: pre-emergent, 28 DAT; rate g ai/ha by row: r5 94, r6 125, r7 250, r8 62.5, r9 125, r10 250, r11 94+62.5, r12 125+62.5, r13 94+125, r14 125+125, r15 94+250, r16 125+250, r17 78.8, r18 157.5, r19 315, r20 94+78.8, r21 125+78.8, r22 94+157.5, r23 125+157.5, r24 94+315, r25 125+315. As to the method:
as §1, §2, §3, §4

The subject of assay [3] is Barnyardgrass (ECHCG). The format is in vivo, Echinochloa crus-galli. The conditions noted are these: pre-emergent, 28 DAT; rate g ai/ha by row: r5 94, r6 125, r7 250, r8 62.5, r9 125, r10 250, r11 94+62.5, r12 125+62.5, r13 94+125, r14 125+125, r15 94+250, r16 125+250, r17 78.8, r18 157.5, r19 315, r20 94+78.8, r21 125+78.8, r22 94+157.5, r23 125+157.5, r24 94+315, r25 125+315. The method, then: as §1, §2
Fiber flats designated for treatment were placed in a spray chamber having a static platform and a movable sprayer and the height of the spray nozzle was 10.5 inches above the soil level. Once the sprayer was calibrated using water for spray volume of 30 gallons per acre, flats were sprayed with sprayer at a speed to receive a coverage equivalent of 30 gallons per acre. […]
The control of weeds was evaluated in each experimental test at 21 for wheat and 28 days after treatment (DAT) for all species. Data were analyzed using Minitab software at 95% confidence interval. […] Percent control was determined by a method similar to the 0 to 100 rating system disclosed in “Research Methods in Weed Science,” 2nd ed., B. Truelove, Ed.; Southern Weed Science Society; Auburn University, Auburn, Ala., 1977. […]

Take `COC[C@H](C)N(C(=O)CCl)c1c(C)csc1C` [Dimethanamid-P]: the “percentage of weed control, DIGSA” value in assay [1] (52.5 g ai/ha) worked out at 20%; in assay [1] (70 g ai/ha) it was 25%. Besides, the “percentage of weed control, Goosegrass ELEIN” value in assay [2] is reported as 96%. In addition, the “percentage of weed control, Barnyardgrass ECHCG” value in assay [3] was 100%.
